Measurements reported in paper PMC5312968, “Structure, kinetic characterization and subcellular localization of the two ribulose 5-phosphate epimerase isoenzymes from Trypanosoma cruzi” (PLoS ONE, 2017).
Several values for one entry are separate records, joined by “and”; a condition that tells them apart may be missing. Identical values can stand only once.

What was measured:
[1] = molecular target: T1, TcRPE1 (Trypanosoma cruzi, UniProt Q4DBL0); test: coupled enzyme assay (transketolase), spectrophotometric; format: biochemical; conditions: pH 7.25, 30°C, triethanolamine-HCl, 0.02–2 mM substrate; biphasic kinetics, authors give no constants
T1 construct: gene Tc00.1047053510257.30; full-length ORF of 735 bp, pET-22b(+), C-terminal His6 tag kept, E. coli BL21 codon Plus (DE3), subunit 27 kDa, monomer to octamer mixture
T1 sequence (Q4DBL0 1-244): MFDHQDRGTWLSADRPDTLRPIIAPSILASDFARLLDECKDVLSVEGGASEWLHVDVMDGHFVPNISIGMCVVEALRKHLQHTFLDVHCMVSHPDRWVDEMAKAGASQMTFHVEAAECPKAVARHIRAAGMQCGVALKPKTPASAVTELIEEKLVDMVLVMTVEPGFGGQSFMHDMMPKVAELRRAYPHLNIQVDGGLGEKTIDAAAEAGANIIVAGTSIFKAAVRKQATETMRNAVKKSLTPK

[2] = molecular target: recombinant ribulose-5-phosphate epimerase 2 from Trypanosoma cruzi CL Brener clone (TcRPE2) (Trypanosoma cruzi CL Brener clone); test: SEC-MALS; Superose 12 column with in-line multi-angle static and dynamic light scattering (SEC-FPLC-LS), room temperature, 50 mM Tris-HCl pH 7.6, 500 mM NaCl, 0.4 ml/min; mixture of oligomeric species of one protein

Row | stoichiometry N [2] | Compound | coupled enzyme assay (transketolase), spectrophotometric [1]
1 |  | O=C(CO)[C@H](O)[C@H](O)COP(=O)(O)O [D-ribulose-5-phosphate] | TcRPE1 showed a very complex kinetic pattern to increasing concentrations of Ru5P
2 | 2 and 4 | recombinant ribulose-5-phosphate epimerase 2 from Trypanosoma cruzi CL Brener clone (TcRPE2) (enzyme) | 
